Legend:
[1] = system: Human immunodeficiency virus type 1 protease (Human immunodeficiency virus 1), Q72874 [V32I,I47V,V82I]
[2] = system: Human immunodeficiency virus 1
Description: Binding affinity to wild type HIV1 protease assessed as deltaS level at pH 5.0 and 20 degC by ITC method

[3] = system: Human immunodeficiency virus 1; assay: Binding affinity to wild type HIV1 protease assessed as -TdeltaS level at pH 5.0 and 20 degC by ITC method
[4] = system: Human immunodeficiency virus 1; remark: listed apart in the source
Description: Binding affinity to wild type HIV1 protease assessed as deltaH level at pH 5.0 and 20 degC by ITC method

[5] = Binding affinity to wild type HIV1 protease at pH 5.0 and 20 degC by ITC method; parameters: species or system Human immunodeficiency virus 1
[6] = system: Human immunodeficiency virus type 1 protease (Human immunodeficiency virus 1), Q72874 [V32I,I47V,V82I]; remark: listed apart in the source
[7] = system: Human immunodeficiency virus type 1 protease (Human immunodeficiency virus 1), Q72874 [V32I,I47V,V82I]; remark: listed apart in the source
[8] = system: Human immunodeficiency virus type 1 protease (Human immunodeficiency virus 1), Q72874 [V32I,I47V,V82I]; remark: listed apart in the source
[9] = molecular target: T1, Human immunodeficiency virus type 1 protease (Human immunodeficiency virus 1, UniProt Q72874, I47V/V32I/V82I); assay: Binding affinity to HIV1 protease V32I/I47V/V82I triple mutant at pH 5.8 and 28 degC by ITC method
T1 sequence (Q72874 entry or part of it I47V/V32I/V82I): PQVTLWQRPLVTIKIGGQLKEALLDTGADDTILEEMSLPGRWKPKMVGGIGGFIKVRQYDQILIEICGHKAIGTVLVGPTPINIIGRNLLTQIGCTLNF

[10] = system: Human immunodeficiency virus type 1 protease (Human immunodeficiency virus 1), Q72874 [V32I,I47V,V82I]; remark: listed apart in the source
[11] = system: Human immunodeficiency virus type 1 protease (Human immunodeficiency virus 1), Q72874 [V32I,I47V,V82I]; remark: listed apart in the source
[12] = system: Human immunodeficiency virus 1; remark: listed apart in the source
Description: Binding affinity to wild type HIV1 protease assessed as deltaG level at pH 5.0 and 20 degC by ITC method

[13] = system: Human immunodeficiency virus type 1 protease (Human immunodeficiency virus 1), Q72874 [V32I,I47V,V82I]; remark: listed apart in the source
[14] = molecular target: T1, Human immunodeficiency virus type 1 protease; assay: Binding affinity to HIV1 protease V32I/I47V/V82I triple mutant at pH 4.0 and 28 degC by ITC method
[15] = system: Human immunodeficiency virus type 1 protease (Human immunodeficiency virus 1), Q72874 [V32I,I47V,V82I]; remark: listed apart in the source

Sequence of Human immunodeficiency virus type 1 protease (Human immunodeficiency virus 1), Q72874 [V32I,I47V,V82I] (Q72874 entry or part of it V32I/I47V/V82I): as the sequence (Q72874 entry or part of it I47V/V32I/V82I) above

## CC(C)CN(C[C@@H](O)[C@H](Cc1ccccc1)NC(=O)O[C@H]1CCOC1)S(=O)(=O)c1ccc(N)cc1 [AMPRENAVIR]
[1]
  deltaG: -10.2 kcal/mol
[2]
  deltaS: 18.1 cal/mol.K
[3]
  -TdeltaS: -5.3 kcal/mol
[4]
  deltaH: -7.3 kcal/mol
[5]
  Ki: 0.00039 µM
[6]
  deltaG: -11 kcal/mol
[7]
  deltaS: 14.3 cal/mol.K
[8]
  deltaH: -6.8 kcal/mol
[9]
  Ki: 0.035 µM
[10]
  -TdeltaS: -4.3 kcal/mol
[11]
  -TdeltaS: -4.2 kcal/mol
[12]
  deltaG: -12.6 kcal/mol
[13]
  deltaH: -6 kcal/mol
[14]
  Ki: 0.01 µM
[15]
  deltaS: 14 cal/mol.K
